Source: PubChem BioAssay AID1329 (NMMLSC, 2008)
The source made the active and inactive calls. No rule for the calls is given here.

What follows are molecules tested against Induced myeloid leukemia cell differentiation protein Mcl-1 (Homo sapiens) (UniProt Q07820) (assay: Mcl-1/Bim interaction regulators – biochemical, bead-based flow cytometry, multiplexed, human, dose response (AID 1329)). Details: Bim peptide-Mcl-1 binding, MCF.
Induced myeloid leukemia cell differentiation protein Mcl-1 (Homo sapiens), sequence (Q07820 whole entry, looked up): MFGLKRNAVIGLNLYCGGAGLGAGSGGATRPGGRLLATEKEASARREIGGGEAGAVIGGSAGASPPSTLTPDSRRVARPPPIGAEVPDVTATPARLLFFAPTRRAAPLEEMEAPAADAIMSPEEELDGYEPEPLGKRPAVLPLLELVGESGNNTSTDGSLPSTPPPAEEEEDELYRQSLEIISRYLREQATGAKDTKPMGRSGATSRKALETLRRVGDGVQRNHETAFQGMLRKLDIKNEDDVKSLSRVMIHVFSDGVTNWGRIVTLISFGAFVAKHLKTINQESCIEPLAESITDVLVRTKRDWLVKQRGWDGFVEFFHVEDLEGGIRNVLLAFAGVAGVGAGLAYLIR
`COc1ccc(OC)c(Nc2ccc(C(=O)O)cc2[N+](=O)[O-])c1` was tested, and the percent span was “inactive”.
`CN(CC(=O)O/N=C(\N)c1ccc([N+](=O)[O-])cc1)S(=O)(=O)c1ccccc1` was tested, and the percent span was “inactive”.
In the case of `CCn1c(SCC(=O)Nc2ccccc2-c2ccccc2)nnc1-c1ccoc1C`, the percent span is reported as “inactive”.
With `COC(=O)C1C2c3ccccc3OC1(C)N=c1s/c(=C/c3cnn(C)c3C)c(=O)n12` (stereo unspecified) the percent span was “inactive”.
With `S=c1[nH]cc(-c2ccccc2)n1-c1ccccc1Cl` the percent span was “inactive”.
For `Cc1ccc(/C=C/C(=O)Nc2ccc([N+](=O)[O-])c(NC(=O)/C=C/c3ccc(C)o3)c2)o1`, the percent span was “inactive”.
`Cn1c(=O)c2c(nc(NCCO)n2CCc2ccccc2)n(C)c1=O` was tested, and the percent span was “inactive”.
`CCOc1cc(/C=N/NC(=O)c2cccs2)cc([N+](=O)[O-])c1O` was tested, and the percent span was “inactive”.
In the case of `Cc1cc(OCc2cn3cccnc3n2)ccc1Cl`, the percent span is reported as “inactive”.
`CCCCCCc1cc2cc(C(=O)Nc3ccccc3)c(=O)oc2cc1O` was tested, and the percent span was “inactive”.
`O=C1NC(=O)C(=Cc2ccc(-c3cc(Cl)ccc3[N+](=O)[O-])o2)C(=O)N1` was tested, and the percent span was “inactive”.
In the case of `N=C1C(c2nc3ccccc3s2)=C(O)CN1Cc1ccccc1`, the percent span is reported as “inactive”.
With `Cc1ccc(S(=O)(=O)N(C)CC(=O)N2CCc3ccccc32)cc1` the percent span was “inactive”.
For `Clc1ccc2c(N/N=C/c3ccccc3Br)ccnc2c1`, the percent span was “inactive”.
For `CS(=O)(=O)NN1C(=O)c2ccccc2NC1c1cccc2cccnc12` (stereo unspecified), the percent span was “inactive”.
For `COc1ccc(-c2noc(COc3ccc4c(c3)OCO4)n2)cc1OC`, the percent span was “inactive”.
`O=C(COc1ccccc1Br)NCc1ccccn1` was tested, and the percent span was “inactive”.
`Cc1ccc(-n2c(CSc3nc(C)cc(C)n3)nnc2SCC(=O)NCc2ccco2)cc1` was tested, and the percent span was “inactive”.
With `Cc1cc(NC(=O)CSc2nnc(-c3cccnc3)n2Cc2ccccc2)no1` the percent span was “inactive”.
With `CCc1nn2cc(C(=O)c3cc(C)ccc3O)cnc2c1-c1ccc(F)cc1` the percent span was “inactive”.
For `O=[N+]([O-])c1c(NCCCO)cc(Sc2nc3ccccc3s2)c2nonc12`, the percent span was “inactive”.
With `c1ccc(-c2nnc(OCCN3CCOCC3)c3ccccc23)cc1` the percent span was “inactive”.
For `O=C(COc1ccccc1)N1CCN(c2ncnc3c2cnn3-c2ccccc2)CC1`, the percent span was “inactive”.
In the case of `Cn1c(=O)c(C(=O)COC(=O)c2cc(-c3ccco3)nc3ccccc23)c(N)n(Cc2ccccc2)c1=O`, the percent span is reported as “inactive”.
`O=C(c1ccc(CNS(=O)(=O)c2ccc(Br)cc2)cc1)N1CCCC1` was tested, and the percent span was “inactive”.
With `c1csc(C2=Nn3c(nnc3-c3ccncc3)SC2)c1` the percent span was “inactive”.
`CCCn1c(C)cc(-c2csc(N)n2)c1C` was tested, and the percent span was “inactive”.
For `O=C(OCc1cnc(Cl)s1)c1cccc(Cl)c1Cl`, the percent span was “inactive”.
With `Cc1sc(NC(=O)Cn2cnnn2)nc1-c1ccc(Cl)cc1` the percent span was “inactive”.
In the case of `Cc1cc(N2CCN(C)CC2)nc2ccc(NC(=S)N3CCN(c4cccc(Cl)c4)CC3)cc12`, the percent span is reported as “inactive”.
`CNc1nc2ccccc2n1/N=C/c1cccc(OC)c1OC` was tested, and the percent span was “inactive”.
For `Fc1ccc(/C=C2\CCCC3=C2NC(=S)NC3c2ccc(F)cc2)cc1` (stereo unspecified), the percent span was “inactive”.
`CS(=O)(=O)NN1C(=O)c2ccccc2NC1c1cccs1` (stereo unspecified) was tested, and the percent span was “inactive”.
`COc1c(F)c(F)c(C(=O)Nc2ccccc2N2CCN(C(=O)C(C)C)CC2)c(F)c1F` was tested, and the percent span was “inactive”.
For `O=C(Nc1cccc(Cl)c1)Nc1ccc(Cl)cn1`, the percent span was “inactive”.
In the case of `CCOC(=O)C1=C(CP(=O)(c2ccccc2)c2ccccc2)NC(=O)NC1c1ccc(OC)cc1` (stereo unspecified), the percent span is reported as “inactive”.
With `COc1cc(/C=C2\S/C(=N/S(=O)(=O)c3ccccc3)NC2=O)c([N+](=O)[O-])cc1OC` the percent span was “inactive”.
For `N#Cc1cccc(N=c2ssnc2Cl)c1`, the percent span was “inactive”.
In the case of `COc1cc(NC(=S)NCCCO)c(OC)cc1Cl`, the percent span is reported as “inactive”.
In the case of `Cc1cccc(-c2nnc3n2N=C(c2ccccc2)CS3)c1`, the percent span is reported as “inactive”.
For `COC(=O)/C(=C/c1ccc(F)cc1)NC(C)=O`, the percent span was “inactive”.
In the case of `CCOC(=O)c1[nH]cnc1C(=O)NC(C)C`, the percent span is reported as “inactive”.
In the case of `CCCOc1ccc(-c2c(C(=O)N/N=C/c3ccc(OC)cc3)nnn2-c2nonc2N)cc1`, the percent span is reported as “inactive”.
For `CCN(CC)c1ccc(NC(=O)c2ccccc2F)cc1S(=O)(=O)Nc1ccccc1OC`, the percent span was “inactive”.
`CCSc1ncc(Cl)c(C(=O)Nc2sc3c(c2C(=O)NCc2cccnc2)CCCC3)n1` was tested, and the percent span was “inactive”.
`CN(CCO)c1cc(Sc2nc3ccccc3s2)c2nonc2c1[N+](=O)[O-]` was tested, and the percent span was “inactive”.
In the case of `Cc1ccc(/C=C2/NC(=O)N(Cc3ccc(Br)cc3)C2=O)o1`, the percent span is reported as “inactive”.
For `O=C(Cn1c(-c2ccccc2)noc1=O)N1CCC(Cc2ccccc2)CC1`, the percent span was “inactive”.
With `O=C(NCc1ccco1)C1CC2CCC1C2` (stereo unspecified) the percent span was “inactive”.
With `Cc1cccn2c(=O)c3cc(C(N)=S)c(=N)n(CCCN4CCOCC4)c3nc12` the percent span was “inactive”.
In the case of `CCCCc1ccc(NC(=S)NCc2ccc(OC)cc2)cc1`, the percent span is reported as “inactive”.
